Here are results for five compounds from patent US7625583B2, “Dietary lipids for improving skin and coat of pets” (Nestec S.A., priority 2000, dated 2009).

For one test, the system named is Malassezia pachydermatis. The experiment in a line: Colorimetric AlamarBlue microtiterplate MIC determination of fatty acids. The class given is cell-based. The following applies: one M. pachydermatis strain, 4-5 days at 30° C. An excerpt:
(§1) A colorimetric method for quantitative measurement of the susceptibility of Staphylococcus aureus, Staphylococcus intermedius and Malassezia pachydermatis strains to fatty acids was developed. This method is based on the assays described by Hogan, J. S., et al, 1987, J. Dairy, Sci., 70, 927-934 and Tiballi, R. N., et al., 1995, J. Clin. Microbiol., 33 (4), 915-917.
(§2) The microorganisms used in this study were Staphylococcus aureus FSM 51, 52, 84 (food isolates), ATCC 6538, Staphylococcus intermedius BCCM™/LMG 9079, 13351 and Malassezia pachidermatis ATCC 14522. Staphylococcus strains were grown in Lab-Lemco broth (LL broth, Oxoid CM 15) for 18-20 h at 30° C. and Malassezia was cultivated for 5 days at 30° C. in liquid Dixon medium (30 g Malt extract, 20 g Oxbile, 15 g Agar, 5 g Mycological peptone, 2.5 g Glycerol mono-oleate, 10 ml Tween™ 40, pH=5.4±0.2). After washing in saline (Oxoid, BR53), cell pellets were resuspended in LL broth supplemented with 0.15% agar (w/v).
(§3) Minimal inhibitory concentrations (MICs) of palmitoleic, lauric and oleic acids (NU-CHECK-PREP, Inc, DK, U-40-A, N-12-A, U-46-A respectively) were investigated in a microtiterplate assay using an oxidation-reduction dye, AlamarBlue™ (Interchim, Fr), as an indicator of growth. Each plate was set up with each of the test microorganisms as follows: one column, 110 μl of sterile LL broth supplemented with 0.15% agar (negative control), one column, 100 μl of sterile LL broth supplemented with 0.15% agar plus 10 μl of test microorganism (positive control), other columns, 100 μl of serial two fold dilutions of the test fatty acids (diluted in LL broth supplemented with 0.15% agar) plus 10 μl of microorganism (final concentration of 10^3-10^4 cell/ml). Plates were incubated at 30° C. in ambient air and examined at 24 h and 4-5 days for Staphylococcus strains and Malassezia respectively. After incubation period, 25 μl of AlamarBlue™ solution (¼ diluted with 10 mM Phosphate Buffered Saline 0.05% Tween 20, Sigma P3563) were added to each well. After a second incubation of 2 h (Staphylococcus) and 1 day (Malassezia) at 30° C., endpoints were determined visually by observing a color change from blue (no growth) to pink (growth). MIC was defined as the lowest fatty acid concentration showing no growth (any color change).
Background: Alamar Blue is a resazurin reagent that responds to reducing activity.

The subject of another test is Staphylococcus aureus. The description is as above. The class given is cell-based. Particulars: four S. aureus strains, 24 h at 30° C.
Text: as §1, §2, §3

Test [1] relates to Staphylococcus intermedius. Described as above. The following applies: two S. intermedius strains, 24 h at 30° C. The class given is cell-based.
Text: as §1, §2, §3

Test [2] has as its system Pneumococci, Streptococcus, Corynebacteria, Micrococci, Candida, Staphylococcus aureus. Particulars: several skin pathogens; cited from earlier work.
The conditions of test [3]: human trial, 600 mg/day for 24 weeks; cited from earlier work.

In brackets after ≈: the same amount, converted by molar mass.

Regarding `CCCCCCCCCCCC(=O)O` [Lauric, lauric acid], the MIC range in the test on Malassezia pachydermatis was less than 200 µg/mL; against Staphylococcus aureus, less than 200 to 400 µg/mL; in test [1] it was less than 200 to 800 µg/mL. The “Inhibition of skin pathogens in vitro (in words)” value (from here on “Inhibition of skin pathogens”) in test [2] is listed as “inhibitory”.
Take `CCCCCCCC/C=C\CCCCCCCC(=O)O` [Oleic, oleic acid]: the MIC range (in the test with Malassezia pachydermatis; in the test with Staphylococcus aureus; in test [1]) was more than 25000 µg/mL throughout.
In the case of `CCCCCC/C=C\CCCCCCCC(=O)O` [Palmitoleic, palmitoleic acid], the MIC range in the test on Staphylococcus aureus is 20 µg/mL (≈ 78.6 µM); in test [1], 20 to 100 µg/mL. In addition, in test [2], the “Inhibition of skin pathogens” value is listed as “inhibitory”.
For the compound `CCCCC/C=C\C/C=C\CCCCCCCC(=O)O` [linoleic acid], the “Inhibition of skin pathogens” value in test [2] was “inhibitory”.
As for `CCCCC/C=C\C/C=C\C/C=C\CCCCC(=O)O` [γ-linolenic acid], the “Improvement of hand dermatitis (in words)” value in test [3] is listed as “did not improve hand dermatitis significantly”.
